Values joined by “and” are separate entries in the source; they are usually repeats but may differ in a detail not shown here. Equal entries are not always repeated. “Also recorded” adds a separate entry of the source.
Columns and labels:
[1] = system: murine breast cancer cell line derived from Kras* mice; assay: MTT cell growth assay on a Kras* breast cancer cell line; format: cell-based, mouse; settings: for MTT colorimetric reading reflecting cell density, Day 2, Average / MTT colorimetric reading reflecting cell density, Day 2, individual duplicate wells / Inhibition of growth of the Kras* breast cancer cell line (in words): 500 nM, 48 h; for MTT colorimetric reading reflecting cell density, Day 2, Average: average of duplicates, Day 0 0.3675, no drug 0.792; for MTT colorimetric reading reflecting cell density, Day 2, individual duplicate wells: wells 1 and 2, Day 0 0.373/0.362, no drug 0.959/0.625
Experimental: A murine breast cancer cell line derived from Kras* mice was used to assay the effect of IGF1RK inhibitors. Approximately 30,000 cells/well were plated in a 24-well plate which corresponds to 20% confluence. The next day (Day 0 for the experiment) two of wells were treated with MTT (Thiazol Blue Tetrazolium), a substrate used in a colorimetric metabolic assay that reflects cell density. […] Forty-eight hours later the duplicate wells were assayed.

[2] = system: Kras*-induced mammary carcinomas; assay: Drug treatment of Kras*-induced mouse mammary carcinomas; format: in vivo; settings: for Macroscopic and histopathological effect on tumors and tumor components (in words): 3 weeks of treatment; for Tumor volume per gland / Tumor volume per gland (Table 10): Mean ± S.E.M.; for Tumor volume per gland / Tumor volume per gland, % of control (vehicle): i.p. once daily for 3 weeks, PPP 30 mg/kg, Erlotinib 50 mg/kg; for Tumor volume per gland: vehicle 217.8 ± 65.6; for Tumor volume per gland, % of control (vehicle): vehicle = 100; for Tumor volume per gland (Table 10): pooled vehicle controls 243.3 ± 68.9 (9 mice); for Potency relative to PPP against Kras*-induced mammary carcinomas: from % tumor volume versus control; for Tumor volume per gland, % of pooled vehicle control (Table 10): pooled vehicle control = 100
Experimental: (§1) Details of the preclinical trial using picropodophyllin synthesized as described (Buchardt O, et al. J. Pharm. Sci. (1986), 75:1076-1080) and Erlotinib (purchased from Hwasun Biotechnology Co) are described in Results. The drugs were dissolved in DMSO and cremophor (9:1) and injected intraperitoneally. To calculate tumor volumes, the formula for a prolate spheroid (π/6×a×b2 or ˜a×b2/2, where a and b are the major and minor axis, respectively) was used. The lengths of axes were determined microscopically from sections of tumor nodules using a computer assisted morphometry system (SpotAdvanced VS. 4.0.1, Nikon Eclipse E400). For xenograft experiments, 5×10^6 MDA-MB-231 cells were injected bilaterally into the fat pads of mammary glands 3 and 4 of female SCID/NOD mice. […] For in vitro experiments, MDA-MB-231 cells were grown in DMEM supplemented with 10% fetal bovine serum. […] Cell viability (duplicates) was measured on days 2, 4 and 6 by using the Thiazolyl Blue Tetrazolium Bromide (MTT) colorimetric assay (Mosmann T, J. Immunol. Methods (1983), 65:55-63).
First, the tumors developing in each gland tended to be multifocal and uneven, and progressively coalesced into larger masses precluding reliable evaluation.
After 21 days of treatment, the mice are sacrificed, weighed, and the initial tumors measured individually. In addition, tumors which were not palpable at the time of initial palpation, but had grown during the therapy period, are also isolated.
The efficacy of compounds 18 “(NB3)” and 21 “(NB6)” to ameliorate Kras*-induced mouse mammary carcinomas was tested. While testing NB3 and NB6 (4 mice each), 2 controls were added (2 tumor-bearing mice treated with vehicle).

MDA-MB-231 cells [3] = assay: MDA-MB-231 orthotopic xenografts in SCID/NOD mice; format: in vivo, human
Experimental: as §1
Nevertheless, in conjunction with the mouse data, these observations provide strong justification for further evaluations of the drug against human breast cancer.

MDA-MB-231 cells [4] = assay: MDA-MB-231 in vitro cell viability (MTT assay); format: cell-based, human; settings: PPP 500 nM; MTT on days 2, 4 and 6
Source text: FIG. 8A-C. In vitro inhibition of Igf1r action. Representative experiments of pharmacological inhibition of IGF1R in MDA-MB-231 cells by picropodophyllin (A) or by IGF1R knockdown using a dominant-negative construct (B) or siRNA (C). The absorbance (mean values±S.E.M.) reflects cell numbers estimated from duplicate samples using the MTT assay (see Experimental Procedures). […] (B) Plasmid 486Stop (encoding dominant-negative IGF1R) or a control plasmid (pcDNA3) were introduced in MDA-MB-231 cells by nucleofection following the manufacturer's protocol (1.5 μg of plasmid DNA per […]; Amaxa Biosystems). The same method was used to introduce into these cells a 19-bp RNA duplex (R4) targeting IGR1R mRNA or a scrambled control duplex (Scr4; see SI Materials and Methods, for details). […]
Details of the preclinical trial using picropodophyllin synthesized as described (Buchardt O, et al. J. Pharm. Sci. (1986), 75:1076-1080) and Erlotinib (purchased from Hwasun Biotechnology Co) are described in Results. […] The lengths of axes were determined microscopically from sections of tumor nodules using a computer assisted morphometry system (SpotAdvanced VS. 4.0.1, Nikon Eclipse E400). […] Cell viability (duplicates) was measured on days 2, 4 and 6 by using the Thiazolyl Blue Tetrazolium Bromide (MTT) colorimetric assay (Mosmann T, J. Immunol. Methods (1983), 65:55-63).

[5] = system: Kras*-induced mammary carcinomas; assay: Drug treatment of Kras*-induced mouse mammary carcinomas; format: in vivo
[6] = target: T1, human Insulin-like Growth Factor I Receptor Kinase (IGF1 RK) domain (Homo sapiens, UniProt P08069); settings: background statement; cited from earlier work
T1 construct: human Insulin-like Growth Factor I Receptor Kinase (IGF1 RK) domain
T1 sequence (P08069 999-1274 limits assumed): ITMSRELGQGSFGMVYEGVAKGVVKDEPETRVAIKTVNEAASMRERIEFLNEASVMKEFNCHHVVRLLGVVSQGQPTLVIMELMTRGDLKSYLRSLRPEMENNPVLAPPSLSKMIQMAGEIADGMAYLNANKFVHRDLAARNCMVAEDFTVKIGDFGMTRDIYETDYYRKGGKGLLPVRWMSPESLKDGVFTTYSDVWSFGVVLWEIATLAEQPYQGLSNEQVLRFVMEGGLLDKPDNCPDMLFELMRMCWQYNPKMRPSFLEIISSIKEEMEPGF

insulin receptor = insulin receptor (Homo sapiens, UniProt P06213); settings: Girnita 2004; Vasilcanu 2008; cited from earlier work
insulin receptor, sequence (P06213 28-1382, species assumed): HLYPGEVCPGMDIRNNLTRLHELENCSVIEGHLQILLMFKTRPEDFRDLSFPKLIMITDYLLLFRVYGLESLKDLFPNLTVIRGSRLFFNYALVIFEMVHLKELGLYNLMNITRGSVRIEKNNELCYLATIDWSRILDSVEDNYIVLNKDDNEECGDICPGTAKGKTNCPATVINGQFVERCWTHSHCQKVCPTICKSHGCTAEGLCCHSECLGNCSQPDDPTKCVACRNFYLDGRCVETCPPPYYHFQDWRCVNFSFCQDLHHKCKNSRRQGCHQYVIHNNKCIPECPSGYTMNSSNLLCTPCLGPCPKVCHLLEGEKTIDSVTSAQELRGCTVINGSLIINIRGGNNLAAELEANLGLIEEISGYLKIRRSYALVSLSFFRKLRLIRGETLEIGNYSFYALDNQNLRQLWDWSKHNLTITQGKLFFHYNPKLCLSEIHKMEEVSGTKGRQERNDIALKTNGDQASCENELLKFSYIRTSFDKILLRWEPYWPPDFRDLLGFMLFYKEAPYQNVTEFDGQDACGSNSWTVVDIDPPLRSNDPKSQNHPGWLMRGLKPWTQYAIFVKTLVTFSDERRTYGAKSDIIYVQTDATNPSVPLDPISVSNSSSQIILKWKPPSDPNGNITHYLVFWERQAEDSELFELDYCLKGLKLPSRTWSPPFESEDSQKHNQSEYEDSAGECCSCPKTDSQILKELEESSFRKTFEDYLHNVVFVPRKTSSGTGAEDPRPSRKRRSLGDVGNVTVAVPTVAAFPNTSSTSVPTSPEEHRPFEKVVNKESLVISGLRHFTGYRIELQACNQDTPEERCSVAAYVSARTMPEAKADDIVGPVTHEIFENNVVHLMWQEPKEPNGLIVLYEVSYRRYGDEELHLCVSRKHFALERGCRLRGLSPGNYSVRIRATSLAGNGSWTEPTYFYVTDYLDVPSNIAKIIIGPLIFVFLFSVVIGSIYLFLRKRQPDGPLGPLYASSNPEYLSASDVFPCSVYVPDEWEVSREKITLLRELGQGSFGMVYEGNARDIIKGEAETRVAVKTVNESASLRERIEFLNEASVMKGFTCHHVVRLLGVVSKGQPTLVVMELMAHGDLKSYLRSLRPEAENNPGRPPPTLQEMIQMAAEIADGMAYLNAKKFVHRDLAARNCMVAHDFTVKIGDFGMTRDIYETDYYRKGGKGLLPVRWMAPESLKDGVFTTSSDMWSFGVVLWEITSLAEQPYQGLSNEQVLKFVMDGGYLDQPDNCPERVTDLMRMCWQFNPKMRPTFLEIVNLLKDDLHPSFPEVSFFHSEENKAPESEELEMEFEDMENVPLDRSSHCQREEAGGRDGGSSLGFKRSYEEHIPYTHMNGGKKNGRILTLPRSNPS

SMILES	MTT colorimetric reading reflecting cell density, Day 2, Average [1]	MTT colorimetric reading reflecting cell density, Day 2, individual duplicate wells [1]	Macroscopic and histopathological effect on tumors and tumor components (in words) [2]	Tumor volume per gland [2] [mm^3]	Tumor volume per gland, % of control (vehicle) [2]	Inhibition of growth of the Kras* breast cancer cell line (in words) [1]	Tumor volume per gland (Table 10) [2] [mm^3]	Potency relative to PPP against Kras*-induced mammary carcinomas [2]	Tumor volume per gland, % of pooled vehicle control (Table 10) [2] [%]	also measured
COc1cc([C@@H]2c3cc4c(cc3[C@H](O)C3COC(=O)[C@H]32)OCO4)cc(OC)c1OC (single isomer, unassigned; (-)) [PPP, (−)-picropodophyllin]	0.4775	0.478 and 0.477	marked reduction or even absence of the pale and squamous cell components; also recorded: dramatically smaller; also recorded: diminishes the size of pale cell tumors	16.0 ± 9.1	~7% and 7.3%	–	–	–	–	Total tumor volume per mouse ([2]; after 21 days of daily treatment, vehicle 653±219, p=0.05): 54±28 mm^3; % tumor volume in comparison with the control, normalized to the new control data ([2]; previous PPP value re-normalized to pooled vehicle control): 6.5%; Tumor volume per gland, xenografts (MDA-MB-231 cells [3]; Mean ± S.E.M., SCID/NOD mice, PPP i.p. for 3 weeks, vehicle 304 ± 40.8): 215 ± 18.6 mm^3; Xenograft tumor growth versus vehicle-treated controls (in words) (MDA-MB-231 cells [3]; NOD/SCID mice, orthotopically injected MDA-MB-231 cells): attenuated; Tumor volume per gland, xenografts, % of vehicle (MDA-MB-231 cells [3]; SCID/NOD mice, PPP i.p. for 3 weeks, vehicle = 100): 70.7%; In vitro viability of MDA-MB-231 cells (in words) (MDA-MB-231 cells [4]): drastically reduced; Increase in apoptosis in the pale component (activated caspase 3 immunohistochemistry) versus vehicle ([5]; 3 days of administration): ~9 fold; Proliferation (proliferation indices) in tumors ([5]; 3 days of treatment): at control levels; Effect on IGF1 RK kinase activity (in words) [6]: inhibits its kinase activity; Effect on the homologous insulin receptor (in words) (insulin receptor): not affected
COc1cccc([C@@H]2c3cc4c(cc3[C@H](O)C3COC(=O)[C@H]32)OCO4)c1 (stereo partly drawn) [Compound 18, 4′,5′-Didemethoxy-(−)-picropodophyllin]	0.5245	0.483 and 0.566	–	–	–	as effective as PPP	20.9 ± 10.8	same potency as PPP	6.5	IC50 ([1]; Mus musculus, read-out: IC50 for growth inhibition of Kras* breast cancer cell line): ~400 nM
COc1ccc([C@@H]2c3cc4c(cc3[C@H](O)C3COC(=O)[C@H]32)OCO4)cc1 (stereo partly drawn) [Compound 19, 3′,5′-Didemethoxy-(−)-picropodophyllin]	–	–	–	–	–	essentially no activity	–	–	–	–
COc1cc(OC)cc([C@@H]2c3cc4c(cc3[C@H](O)C3COC(=O)[C@H]32)OCO4)c1 (stereo partly drawn) [Compound 21, 4′-Demethoxy-(−)-picropodophyllin]	0.4845	0.505 and 0.464	–	–	–	–	2.1 ± 1.0	7 times	0.9	–
C#Cc1cccc(Nc2ncnc3cc(OCCOC)c(OCCOC)cc23)c1 [Erlotinib]	–	–	reduced predominantly the pale cell component	66.9 ± 29.3	30.7%	–	–	–	–	–
